{"source": "patent US20030004187A1", "about": "“Method for preventing dyskinesias” (priority 2001, published 2003)", "key": {"PD patients [1]": {"tested_on": "PD patients", "conditions": "published observation in PD patients; cited from earlier work"}, "PD patients [2]": {"tested_on": "PD patients", "conditions": "cited from earlier work"}, "6-OHDA-lesioned rats": {"tested_on": "6-OHDA-lesioned rats", "conditions": "systemic administration; cited from earlier work"}, "MPTP monkey [3]": {"tested_on": "MPTP monkey", "assay": "Induction of L-Dopa-induced dyskinesias in de novo MPTP parkinsonian monkeys (dyskinetic score)", "format": "in vivo, cynomolgus (Macaca fascicularis) monkeys", "conditions": "for Dyskinesia induction (in words): 4 weeks treatment, L-Dopa/benserazide 100/25 mg alone or plus CI-1041 10 mg/kg per os, FIG. 1"}, "MPTP-treated monkeys": {"tested_on": "MPTP-treated monkeys", "conditions": "3 to 30 mg/kg, cited from earlier work"}, "[4]": {"tested_on": "6-OHDA-lesioned hemiparkinsonian rat model", "conditions": "cited from earlier work"}, "MPTP monkey [5]": {"tested_on": "MPTP monkey", "assay": "Side effects and stereotypies observed during 1-month treatment", "conditions": "CI-1041 10 mg/kg per os with L-Dopa", "procedure": "The experiments were performed in accordance with the standards of the Canadian Council on Animal care using eight female cynomolgus (Macaca fascicularis) monkeys weighing 3.0 to 3.5 kg. They were housed separately in individual observation cages equipped with an electronic motility monitoring system (Datascience, St. Paul, Minnesota) in a temperature-controlled room and exposed to a 12-hour light/dark cycle (lights on 6 AM-6 PM). They were fed once daily in the afternoon (certified primate chow and fruits), and water was provided ad libitum. […] The animals were scored several times a week using a disability scale described below, where the normal state extends from 0 to 2, and maximal disability is 16 points. […]\nThe severity of dyskinesias was also rated every 30 minutes for each body segment: the face, neck, trunk, arms, and legs in the following way: None=0; Mild=1; Moderate=2; Severe=3. The difference between mild, moderate, and severe dyskinesias for a given body segment is based on the assessment of the amplitude of the abnormal movements and the frequency (whether they are occasional, intermittent, or constant); each body segment being scored separately based on assessment of observation in the preceding half hour. […]"}, "[6]": {"biological_target": "NR1A/2B cloned NMDA receptors (Homo sapiens, UniProt Q05586+Q13224)", "sequence (Q13224 27-1484, other chains not shown)": "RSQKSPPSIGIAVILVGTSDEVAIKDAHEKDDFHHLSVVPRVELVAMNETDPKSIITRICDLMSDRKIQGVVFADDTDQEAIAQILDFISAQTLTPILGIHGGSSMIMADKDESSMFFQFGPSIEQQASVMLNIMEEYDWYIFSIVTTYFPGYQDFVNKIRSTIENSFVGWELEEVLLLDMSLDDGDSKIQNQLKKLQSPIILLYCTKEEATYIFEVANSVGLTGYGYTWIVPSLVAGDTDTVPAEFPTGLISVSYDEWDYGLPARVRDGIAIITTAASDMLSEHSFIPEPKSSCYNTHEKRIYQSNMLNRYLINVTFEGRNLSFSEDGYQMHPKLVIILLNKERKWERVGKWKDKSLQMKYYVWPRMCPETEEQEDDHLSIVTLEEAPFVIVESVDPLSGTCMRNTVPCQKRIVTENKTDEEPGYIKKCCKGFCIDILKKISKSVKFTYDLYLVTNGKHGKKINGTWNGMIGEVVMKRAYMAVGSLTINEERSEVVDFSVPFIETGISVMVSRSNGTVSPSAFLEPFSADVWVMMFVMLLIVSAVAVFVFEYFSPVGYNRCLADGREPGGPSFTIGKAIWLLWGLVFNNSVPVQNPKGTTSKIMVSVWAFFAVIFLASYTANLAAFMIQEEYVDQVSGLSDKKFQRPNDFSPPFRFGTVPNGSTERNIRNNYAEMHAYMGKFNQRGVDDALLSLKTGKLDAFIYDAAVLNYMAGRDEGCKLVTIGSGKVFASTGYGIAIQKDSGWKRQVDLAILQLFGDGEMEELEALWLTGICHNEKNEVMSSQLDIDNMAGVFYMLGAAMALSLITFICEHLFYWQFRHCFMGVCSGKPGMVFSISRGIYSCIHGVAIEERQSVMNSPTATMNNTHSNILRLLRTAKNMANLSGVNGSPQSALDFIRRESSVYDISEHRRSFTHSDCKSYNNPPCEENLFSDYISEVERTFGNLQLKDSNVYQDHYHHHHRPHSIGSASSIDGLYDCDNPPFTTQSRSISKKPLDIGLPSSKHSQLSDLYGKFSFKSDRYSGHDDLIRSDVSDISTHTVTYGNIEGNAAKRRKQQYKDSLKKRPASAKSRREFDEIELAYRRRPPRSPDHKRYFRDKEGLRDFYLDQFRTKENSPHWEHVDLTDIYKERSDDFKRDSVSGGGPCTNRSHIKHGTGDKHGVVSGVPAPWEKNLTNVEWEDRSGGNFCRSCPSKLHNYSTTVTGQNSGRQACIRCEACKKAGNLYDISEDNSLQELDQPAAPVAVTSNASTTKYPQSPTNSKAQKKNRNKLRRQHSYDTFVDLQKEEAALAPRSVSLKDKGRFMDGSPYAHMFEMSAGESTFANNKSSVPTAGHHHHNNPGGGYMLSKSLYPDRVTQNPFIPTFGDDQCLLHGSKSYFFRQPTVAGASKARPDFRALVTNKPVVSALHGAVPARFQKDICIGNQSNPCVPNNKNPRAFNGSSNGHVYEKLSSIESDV", "conditions": "cited from earlier work"}, "MPTP monkey [7]": {"tested_on": "MPTP monkey", "assay": "Delay and duration of L-Dopa response", "format": "in vivo, cynomolgus (Macaca fascicularis) monkeys", "design": "Delay of L-Dopa response / Duration of L-Dopa response: unit not given here", "conditions": "for Delay of L-Dopa response / Duration of L-Dopa response: mean ± SEM"}, "MPTP monkey [8]": {"tested_on": "MPTP monkey", "assay": "Antiparkinsonian response, disability scale for MPTP monkey (parkinsonian score)", "format": "in vivo, cynomolgus (Macaca fascicularis) monkeys"}, "MPTP monkey [9]": {"tested_on": "MPTP monkey", "assay": "Locomotor activity by electronic motility monitoring system", "format": "in vivo, cynomolgus (Macaca fascicularis) monkeys", "conditions": "FIG. 2B; maintained during the 4 weeks"}}, "note": "Where “and” joins values, the source holds several entries; their conditions need not be identical. Identical values can stand only once."}
{"smiles": "CCCN[C@H]1CCc2nc(N)sc2C1", "note": "[pramipexole]", "values": [{"measurement": "Sleep attacks", "setting": "PD patients [1]", "result": "episodes of sudden onset of sleep"}]}
{"smiles": "NC12CC3CC(CC(C3)C1)C2", "note": "[amantadine]", "values": [{"measurement": "L-Dopa-induced dyskinesias in PD patients", "setting": "PD patients [2]; human, in vivo", "result": "reduced L-Dopa-induced dyskinesias"}, {"measurement": "Maintenance of beneficial effects on motor response complications after treatment initiation", "setting": "PD patients [2]; one study", "result": "at least 1 year"}]}
{"smiles": "COc1ccc2c(c1)[C@]13CCCC[C@@H]1[C@H](C2)N(C)CC3", "note": "[dextromethorphan]", "values": [{"measurement": "L-Dopa-induced dyskinesias in PD patients", "setting": "PD patients [2]; human, in vivo", "result": "reduced L-Dopa-induced dyskinesias"}]}
{"smiles": "C[C@]12N[C@H](Cc3ccccc31)c1ccccc12", "note": "[MK-801]", "values": [{"measurement": "L-Dopa-induced motor fluctuations", "setting": "6-OHDA-lesioned rats", "result": "completely reversed and more interestingly prevented"}]}
{"smiles": "O=c1[nH]c2ccc([S+]([O-])CCN3CCC(Cc4ccc(F)cc4)CC3)cc2o1", "note": "(centres unmarked) [CI-1041, 6-{2-[4-(4-fluoro-benzyl)-piperidin-1-yl]-ethanesulfinyl}-3H-benzooxazol-2-one]", "values": [{"measurement": "Dyskinesia induction (in words)", "setting": "MPTP monkey [3]; 10 mg/kg", "result": "prevented dyskinesias"}, {"measurement": "Dyskinesia induction (in words)", "setting": "MPTP monkey [3]; listed as C-1041", "result": "completely prevented the induction of dyskinesias in three animals"}, {"measurement": "Alteration in the antiparkinsonian effects of L-Dopa", "setting": "MPTP-treated monkeys; in combination with L-Dopa", "result": "did not produce a consistent alteration"}, {"measurement": "Antiparkinsonian activity when administered alone", "setting": "MPTP-treated monkeys", "result": "did not exhibit any antiparkinsonian activity"}, {"measurement": "Contraversive rotation induced by L-Dopa", "setting": "[4]; peak rate and duration increased, maintained following 9 days of repeated co-administration", "result": "potentiated the contraversive rotation"}, {"measurement": "Rotation induced by direct acting dopamine agonists SKF 38393 and quinpirole", "setting": "[4]; rat, in vivo", "result": "potentiated rotation"}, {"measurement": "Rotation when given alone", "setting": "[4]; rat, in vivo", "result": "increased both contraversive and ipsiversive rotations"}, {"measurement": "Side effects / tolerability", "setting": "MPTP monkey [5]", "result": "well-tolerated and no emesis, ataxia, or hallucinations were observed"}, {"measurement": "Affinity, block of NR2B-containing NMDA receptors", "setting": "[6]; allosteric modulation site", "result": 24, "unit": "nM"}, {"measurement": "Selectivity for NR1A/2B cloned NMDA receptors", "setting": "[6]", "result": "> 1000", "unit": "fold"}, {"measurement": "Effect of CI-1041 co-administration on delay and duration of the L-Dopa response (in words)", "setting": "MPTP monkey [7]; trend for delayed response in first 2 weeks", "result": "not significantly affected"}]}
{"smiles": "CCCN(CCC)CCc1cccc2c1CC(=O)N2", "note": "[ropinirole]", "values": [{"measurement": "Sleep attacks", "setting": "PD patients [1]", "result": "episodes of sudden onset of sleep"}]}
{"smiles": "N[C@@H](Cc1ccc(O)c(O)c1)C(=O)O", "note": "[L-Dopa]", "values": [{"measurement": "Dyskinesia induction (in words)", "setting": "MPTP monkey [3]", "result": "moderate to severe"}, {"measurement": "Persistent Dyskinesia (Max Score), Mean ± SEM", "setting": "MPTP monkey [3]; group mean ± SEM, n=4", "result": "7.1 ± 1.3"}, {"measurement": "Persistent Dyskinesia", "setting": "MPTP monkey [3]; individual animal, Yes/None, 28 days treatment", "result": "Yes"}, {"measurement": "Persistent Dyskinesia (Max Score)", "setting": "MPTP monkey [3]; individual animal, maximum dyskinetic score, maximal score 21", "result": "8.5 and 4 and 6 and 10"}, {"measurement": "Parkinsonian scores as compared to the control (in words)", "setting": "MPTP monkey [8]; FIG. 2A", "result": "significantly (P<0.01) lowered"}, {"measurement": "Antiparkinsonian Efficacy (Min. Score), Mean ± SEM", "setting": "MPTP monkey [8]; group mean ± SEM, n=4, 28 days treatment", "result": "3.3 ± 0.2"}, {"measurement": "Antiparkinsonian Efficacy", "setting": "MPTP monkey [8]; individual animal, grade in words, 28 consecutive days of daily oral treatment", "result": "Good"}, {"measurement": "Antiparkinsonian Efficacy (Min. Score)", "setting": "MPTP monkey [8]; individual animal, minimum parkinsonian score, maximal disability 16, 28 days treatment", "result": "2.8 and 3.7 and 3.4 (2×)"}, {"measurement": "Locomotion as compared to control (in words)", "setting": "MPTP monkey [9]", "result": "significant (P<0.01) increase in locomotion"}, {"measurement": "Prevalence of dyskinesias", "setting": "PD patients [2]; human, in vivo", "result": "30-80%"}, {"measurement": "Delay of L-Dopa response", "setting": "MPTP monkey [7]; Day 7", "result": "47.3 ± 4.4^"}, {"measurement": "Duration of L-Dopa response", "setting": "MPTP monkey [7]; Day 7", "result": "221.3 ± 46.0^"}, {"measurement": "Delay of L-Dopa response", "setting": "MPTP monkey [7]; Day 14", "result": "59.5 ± 17.2"}, {"measurement": "Duration of L-Dopa response", "setting": "MPTP monkey [7]; Day 14", "result": "189.3 ± 29.5^"}, {"measurement": "Delay of L-Dopa response", "setting": "MPTP monkey [7]; Day 21", "result": "52.5 ± 10.3^"}, {"measurement": "Duration of L-Dopa response", "setting": "MPTP monkey [7]; Day 21", "result": "222.5 ± 24.6^"}, {"measurement": "Delay of L-Dopa response", "setting": "MPTP monkey [7]; Day 28", "result": "50 ± 5.8"}, {"measurement": "Duration of L-Dopa response", "setting": "MPTP monkey [7]; Day 28", "result": "198.75 ± 25.5"}]}
